Where a name gives a salt, the structure may show the parent alone.
What was measured:
[1] = tested on: human cardiac fibroblasts; experiment: Cell-based inhibition assay of generation of procollagen I C-terminal propeptide (PICP), PICP ELISA; conditions: Cardiac fibroblast, read-out: pIC50, PICP cellular inhibition assay (converted)
How it was run: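 Cardiac fibroblasts (passage ≤6) treated 24–48 h at 37 °C with compounds in ficoll crowding medium containing 100 μM ascorbic acid, DMSO <0.3%. PICP secreted into the medium was quantified by ELISA, normalised to untreated controls and fitted to log(inhibitor)–response to give pIC50.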

[2] = tested on: human cardiac fibroblasts; experiment: Cell-based inhibition assay of mature collagen deposition (immunostaining); conditions: Cardiac fibroblast, read-out: pIC50, mature collagen cellular inhibition assay (converted)
Method: Cell-Based Inhibition Assay of Generation of Procollagen I C-Terminal Propeptide (PICP) and Mature Collagen:
An adaptation of the collagen deposition assay described by Chen, C. Z. C., et al., British Journal of Pharmacology, 2009, 158, 1196-1209 was used to examine effect of compounds on procollagen I processing and collagen deposition. In the adapted assay, human cardiac fibroblasts were utilized. Processing of procollagen I was determined by a PICP ELISA assay and deposition of mature collagen was determined by immunostaining.
Human cardiac fibroblasts were cultured and maintained until passage 6 in FGM-3 media (Lonza, #CC-3132) in a 37° C. humidified incubator with 5% CO2. They were then seeded in 96-well black wall, clear bottom plates at 10,000 to 15,000 cells per well in eagle's minimum essential media (EMEM, ATCC #30-2003) containing 10% fetal bovine serum (FBS, Life Technologies #10082147), 1% Glutamax (Life Technologies #35050061) and 1% Penicillin and Streptomycin (Life Technologies #15070063). These cultures were placed in 37° C. incubator. The next day, media were removed by aspiration and cells were rinsed with phosphate buffered saline. Crowding media (also called ficoll media) was prepared by adding 112.5 mg/ml of ficoll70 and 75 mg/ml ficoll400 (GE healthcare #17-0310-10 and 17-0300-10, respectively), 100 μM ascorbic acid, 1% Glutamax and 1% Penicillin and Streptomycin to EMEM media. Test compounds (dissolved in DMSO) were diluted into crowding media and then added to the cells. Final concentration of DMSO in crowding media was less than 0.3%. Cells were treated for 24 to 48 hr in a 37° C. incubator. At the end of the treatment period, cell media were collected. The level of PICP in the media were determined by a PICP ELISA assay (Quidel #8003) following the manufacturer's protocol. Potencies of test compounds were calculated by fitting PICP levels, relative to untreated controls, to log (inhibitor) vs. response equation using Graphpad Prism software 5.0 and expressed as pIC50.
For some compounds, deposition of mature collagen was measured by immunostaining in addition to PICP levels. At the end of the treatment period, cells on culture plate were fixed with 100% methanol (prechilled to −20° C.) for 10 min. Then the cells were immunostained with mouse anti-mature collagen I antibody (1:500 dilution, Sigma#C2456), anti-mouse secondary antibody Alexa647 (1:500 dilution, Invitrogen#A21236) and Hoechst (for nuclei, 2 μg/ml, Invitrogen#H3596). Fluorescent image acquisition was done using the Operetta High Content Imaging system (Perkin Elmer). For each image field, the intensity of mature collagen staining was normalized with the number of nuclei. Normalized collagen levels were used to calculate the potency of test compounds with Graphpad Prism software, as described above.

[3] = human cardiac fibroblasts, crowding media, 24 to 48 hr, PICP ELISA of media
[4] = human cardiac fibroblasts, crowding media, 24 to 48 hr, collagen I immunostaining normalized to nuclei

How did the IC50 ([1]; Homo sapiens) turn out when `CCCCC[C@H](CN(O)C=O)C(=O)NCNC(=O)c1ccc(-c2ccccc2)o1` [Example 5, (R)-N-((2-((N-hydroxyformamido)methyl)heptanamido)methyl)-5-phenylfuran-2-carboxamide] was run?
The IC50 was less than 3.98 µM.

And the IC50 ([2]; Homo sapiens)?
The IC50 was less than 1 µM.

`CCCCC[C@@H](C(=O)NCNC(=O)c1ccc(-c2ccccc2)o1)[C@@H](CC)N(O)C=O` [Example 24, N-(((R)-2-((R)-1-(N-hydroxyformamido)propyl)heptanamido)methyl)-5-phenylfuran-2-carboxamide] was tested. Which IC50 [1, 3] did it give?
The IC50 was less than 3.98 µM.

And the IC50 [2, 4]?
Its IC50 is less than 1 µM.

Which results are given for `CCCCC[C@@H](C(=O)NCNC(=O)c1ccc(-c2cc(OCC)cc(C(=O)O)c2)o1)[C@@H](CC)N(O)C=O` [Example 39, 3-ethoxy-5-(5-((((R)-2-((R)-1-(N-hydroxyformamido)propyl)heptanamido)methyl)carbamoyl)furan-2-yl)benzoic acid]?
IC50 [1, 3]: < 3.98 µM; IC50 [2, 4]: < 1 µM

Which IC50 [1, 3] does the source give for `CCCCC[C@@H](C(=O)NCNC(=O)c1ccc(-c2cc(OCC)cc(C(=O)N[C@@H](CC(=O)O)C(=O)OC(C)(C)C)c2)o1)[C@@H](CC)N(O)C=O` [Example 47, (S)-4-(tert-butoxy)-3-(3-ethoxy-5-(5-((((R)-2-((R)-1-(N-hydroxyformamido)propyl)heptanamido)methyl)carbamoyl)furan-2-yl)benzamido)-4-oxobutanoic acid] here?
The IC50 was less than 3.98 µM.

And the IC50 [2, 4]?
Its IC50 is less than 1 µM.

For `CCCCC[C@@H](C(=O)NCNC(=O)c1ccc(-c2ccc(C(=O)N[C@@H](CC(=O)O)C(=O)O)c(OCC)c2)o1)[C@@H](CC)N(O)C=O` [Example 74, (S)-2-(2-ethoxy-4-(5-((((R)-2-((R)-1-(N-hydroxyformamido)propyl)heptanamido)methyl)carbamoyl)furan-2-yl)benzamido)succinic acid], which IC50 [1, 3] is on record?
Its IC50 is less than 3.98 µM.

And the IC50 [2, 4]?
Its IC50 is less than 1 µM.

What does the source list for `CCCCC[C@@H](C(=O)NCNC(=O)c1ccc(-c2ccc(CC(=O)N[C@@H](CC(=O)O)C(=O)O)c(OCC)c2)o1)[C@@H](CC)N(O)C=O` [Example 75, (S)-2-(2-(2-ethoxy-4-(5-((((R)-2-((R)-1-(N-hydroxyformamido)propyl)heptanamido)methyl)carbamoyl)furan-2-yl)phenyl)acetamido) succinic acid]?
IC50 [1, 3]: < 3.98 µM; IC50 [2, 4]: < 1 µM

What does the source list for `CCCCC[C@@H](C(=O)NCNC(=O)c1ccc(-c2cc(OCC)cc(C(=O)N[C@@H](CC(=O)O)C(=O)O)c2)o1)[C@@H](CC)N(O)C=O` [Example 77, (S)-2-(3-ethoxy-5-(5-((((R)-2-((R)-1-(N-hydroxyformamido)propyl)heptanamido)methyl)carbamoyl)furan-2-yl)benzamido) succinic acid]?
IC50 [1, 3]: < 3.98 µM; IC50 [2, 4]: < 1 µM

How did the IC50 [1, 3] turn out when `CCCCC[C@@H](C(=O)NCNC(=O)c1ccc(-c2cccc(C3(C(=O)O)CC3)c2)o1)[C@@H](CC)N(O)C=O` [Example 80, 1-(3-(5-((((R)-2-((R)-1-(N-hydroxyformamido)propyl)heptanamido)methyl)carbamoyl)furan-2-yl)phenyl) cyclopropanecarboxylic acid] was run?
The IC50 was less than 3.98 µM.

What about the IC50 [2, 4] of the same compound?
The IC50 was less than 1 µM.

For `CCCCC[C@@H](C(=O)NCNC(=O)c1ccc(-c2cc(OCC)cc(C(=O)O)c2O)o1)[C@@H](CC)N(O)C=O` [Example 81, 5-ethoxy-2-hydroxy-3-(5-((((R)-2-((R)-1-(N-hydroxy-formamido)propyl)heptanamido)methyl)carbamoyl)furan-2-yl)benzoic acid], which IC50 [1, 3] is on record?
Its IC50 is less than 3.98 µM.

And the IC50 [2, 4]?
Its IC50 is less than 1 µM.

For `CCCCC[C@@H](C(=O)NCNC(=O)c1ccc(-c2cc(OCCC)cc(C(=O)O)c2)o1)[C@@H](CC)N(O)C=O` [Example 82], which IC50 [1, 3] is on record?
The IC50 was less than 3.98 µM.

And the IC50 [2, 4]?
Its IC50 is less than 1 µM.

For `CCCCC[C@@H](C(=O)NCNC(=O)c1ccc(-c2ccc(C(=O)N(CC(=O)O)CC(=O)O)c(OCC)c2)o1)[C@@H](CC)N(O)C=O` [Example 86, 2,2′-((2-ethoxy-4-(5-((((R)-2-((R)-1-(N-hydroxy-formamido)propyl)heptanamido)methyl)carbamoyl)furan-2-yl)benzoyl)azanediyl) diacetic acid], which IC50 [1, 3] is on record?
Its IC50 is less than 3.98 µM.

And the IC50 [2, 4]?
The IC50 was less than 1 µM.

What does the source list for `CCCCC[C@@H](C(=O)NCNC(=O)c1ccc(-c2cc(OCC)cc(C(=O)N[C@@H](CCC(=O)O)C(=O)O)c2)o1)[C@@H](CC)N(O)C=O` [Example 93, (S)-2-(3-ethoxy-5-(5-((((R)-2-((R)-1-(N-hydroxy-formamido)propyl)heptanamido)methyl)carbamoyl)furan-2-yl)benzamido) pentanedioic acid]?
IC50 [1, 3]: < 3.98 µM; IC50 [2, 4]: < 1 µM

Which IC50 [1, 3] does the source give for `CCCCC[C@@H](C(=O)NCNC(=O)c1ccc(-c2cc(OCC)cc(P(=O)(O)O)c2)o1)[C@@H](CC)N(O)C=O` [Example 96, (3-ethoxy-5-(5-((((R)-2-((R)-1-(N-hydroxyformamido)propyl)heptanamido)methyl)carbamoyl)furan-2-yl)phenyl)phosphonic acid] here?
The IC50 was less than 3.98 µM.

What about the IC50 [2, 4] of the same compound?
Its IC50 is less than 1 µM.

How did the IC50 [1, 3] turn out when `CCCCC[C@@H](C(=O)NCNC(=O)c1ccc(-c2cc(CNCP(=O)(O)O)cc(OCC)c2)o1)[C@@H](CC)N(O)C=O` [Example 137, (((3-ethoxy-5-(5-((((R)-2-((R)-1-(N-hydroxyformamido)propyl)heptanamido)methyl)carbamoyl)furan-2-yl)benzyl)amino)methyl)phosphonic acid, trifluoroacetic acid salt] was run?
The IC50 was less than 3.98 µM.

How did the IC50 [1, 3] turn out when `CCCCC[C@@H](C(=O)NCNC(=O)c1ccc(-c2cc(O)cc(P(=O)(O)O)c2)o1)[C@@H](CC)N(O)C=O` [Example 138, (3-hydroxy-5-(5-((((R)-2-((R)-1-(N-hydroxyformamido)propyl)heptanamido)methyl)carbamoyl)furan-2-yl)phenyl) phosphonic acid] was run?
The IC50 was less than 3.98 µM.

How did the IC50 [1, 3] turn out when `CCOc1cc(-c2ccc(C(=O)NCNC(=O)[C@H](CCc3ccccc3)[C@@H](CC)N(O)C=O)o2)cc(P(=O)(O)O)c1` [Example 140] was run?
Its IC50 is less than 3.98 µM.

Which IC50 [1, 3] does the source give for `CCOc1cc(-c2ccc(C(=O)NCNC(=O)[C@H](CCc3ccc4ccccc4c3)[C@@H](CC)N(O)C=O)o2)cc(P(=O)(O)O)c1` [Example 141] here?
The IC50 was less than 3.98 µM.

Which IC50 [1, 3] does the source give for `CCCCC[C@@H](C(=O)NCNC(=O)c1ccc(-c2ccc(C(=O)NCP(=O)(O)O)c(O)c2)o1)[C@@H](CC)N(O)C=O` [Example 142, ((2-hydroxy-4-(5-((((R)-2-((R)-1-(N-hydroxyformamido)propyl)heptanamido)methyl)carbamoyl)furan-2-yl)benzamido)methyl)phosphonic acid] here?
The IC50 was less than 3.98 µM.

For `CCCCC[C@@H](C(=O)NCNC(=O)c1ccc(-c2ccc(C(=O)NCP(=O)(O)O)cc2)o1)[C@@H](CC)N(O)C=O` [Example 143, ((4-(5-((((R)-2-((R)-1-(N-hydroxyformamido)propyl)heptanamido)methyl)carbamoyl)furan-2-yl)benzamido)methyl)phosphonic acid], which IC50 [1, 3] is on record?
Its IC50 is less than 3.98 µM.

Which IC50 [1, 3] does the source give for `CCCCC[C@@H](C(=O)NCNC(=O)c1ccc(-c2ccc(C(=O)NCP(=O)(O)O)c(C)c2)o1)[C@@H](CC)N(O)C=O` [Example 144, ((4-(5-((((R)-2-((R)-1-(N-hydroxyformamido)propyl)heptanamido)methyl)carbamoyl)furan-2-yl)-2-methylbenzamido)methyl)phosphonic acid] here?
Its IC50 is less than 3.98 µM.

With `CCCCC[C@@H](C(=O)NCNC(=O)c1ccc(-c2cc(OCC(=O)O)cc(P(=O)(O)O)c2)o1)[C@@H](CC)N(O)C=O` [Example 145, 2-(3-(5-((((R)-2-((R)-1-(N-hydroxyformamido)propyl)heptanamido)methyl)carbamoyl)furan-2-yl)-5-phosphonophenoxy) acetic acid] as the compound, how does the IC50 [1, 3] read?
Its IC50 is less than 3.98 µM.

With `CCCCC[C@@H](C(=O)NCNC(=O)c1ccc(-c2ccc(C(=O)O)c(O)c2)o1)[C@@H](CC)N(O)C=O` [Example 146, 2-hydroxy-4-(5-((((R)-2-((R)-1-(N-hydroxyformamido)propyl)heptanamido)methyl)carbamoyl)furan-2-yl)benzoic acid] as the compound, how does the IC50 [1, 3] read?
Its IC50 is less than 3.98 µM.

Reference: patent US10450288B2, “Hydroxy formamide derivatives and their use” (GLAXOSMITHKLINE INTELLECTUAL PROPERTY (NO.2) LIMITED, priority 2014, dated 2019)
